Source: patent publication EP0617968B1, “HIV protease inhibitors in pharmaceutical combinations for the treatment of AIDS” (Merck & Co., Inc., priority 1993, dated 1994)

Target: T1, HIV protease (Human immunodeficiency virus type 1 group M subtype B, UniProt P04585)
T1 construct: made in house; host or cells: Escherichia coli
Experiment: biochemical
Details: protease expressed in Eschericia coli; peptide substrate 0.5 mg/mL; 50 mM Na acetate, pH 5.5, 30°C, 1 hour
Protocol: Assay for Inhibition of Microbial Expressed HIV Protease
Inhibition studies of the reaction of the protease expressed in Eschericia coli with a peptide substrate [Val-Ser-Gln-Asn-(betanapthyl)Ala-Pro-Ile-Val, 0.5 mg/mL at the time the reaction is initiated] were in 50 mM Na acetate, pH 5.5, at 30°C for 1 hour. Various concentrations of inhibitor in 1.0 ul DMSO were added to 25 ul of the peptide solution in water. The reaction is initiated by the addition of 15 ul of 0.33 nM protease (0.11 ng) in a solution of 0.133 M Na acetate pH 5.5 and 0.1% bovine serum albumin. The reaction was quenched with 160 ul of 5% phosphoric acid. Products of the reaction were separated by HPLC (VYDAC wide pore 5 cm C-18 reverse phase, acetonitrile gradient, 0.1 % phosphoric acid). The extent of inhibition of the reaction was determined from the peak heights of the products.

SMILES | IC50
CC(C)(C)NC(=O)[C@@H]1CN(C(=O)OCc2ccccc2)CCN1C[C@@H](O)C[C@@H](Cc1ccccc1)C(=O)N[C@H]1c2ccccc2C[C@H]1O [B, N-(2(R)-hydroxy-1(S)-indanyl)-2(R)-phenylmethyl-4(S)-hydroxy-5-(1-(4-carbobenzyloxy-2(S)-N'-(t-butylcarbamoyl)-piperazinyl))-pentaneamide] | 0.3 to 6 nM
CC(C)(C)NC(=O)[C@@H]1C[C@@H]2CCCC[C@@H]2CN1C[C@@H](O)C[C@@H](Cc1ccccc1)C(=O)N[C@H]1c2ccccc2C[C@H]1O [A, N-(2(R)-hydroxy-1(S)-indanyl)-2(R)-phenylmethyl-4(S)-hydroxy-5-(2-(3(S)-N'-(t-butylcarbamoyl)-(4aS,8aS)-decahydroisoquinoline)yl)-pentaneamide] | 0.3 to 6 nM
